Results published in patent US20130324508A1, “BIOMARKER FOR PROSTATE CANCER AND METHOD OF USING THE SAME” (UNIVERSITY OF TENNESSEE RESEARCH FOUNDATION, priority 2012, published 2013).
Ends that are not written are not given here.

Legend:
PC-3 cells = PC-3 cells treated with ERK pathway inhibitor; cited from earlier work
22Rv1 [1] = experiment: PSA and Runx 2II gene expression in 22Rv1 cells (real time RT-PCR); format: cell-based, human; conditions: for PSA gene expression / Runx 2II gene expression: 22Rv1, 8 hours stimulation, OC 80 ng/ml, arginine 30 mM, R1881 100 nM; for PSA gene expression: FIG. 4A; for Runx 2II gene expression: FIG. 4B
Procedure: (§1) Human tissue cDNAs were obtained from Clontech Laboratories, Inc. Total RNA from human prostate cancer cells was isolated with RNeasy Mini Kit (Qiagen Inc., Valencia, Calif.). RT-PCR was done using two-step RNA PCR (Perkin-Elmer). In separate reactions, 2.0 μg of DNase-treated total RNA was reverse-transcribed into cDNA with the respective reverse primers specified below and Moloney murine leukemia virus reverse transcriptase (Gibco Life Technologies, Inc.). Reactions were carried out at 42° C. for 60 min followed by 94° C. for 5 min and 5° C. for 5 min. The products of first-strand cDNA synthesis were directly amplified by PCR using AmpliTaq DNA polymerase (Perkin-Elmer). The primers for human GPRC6A are as follows: hGPRC6A.F203: […] (SEQ ID NO: 1) and hGPRC6A.R630: […] (SEQ ID NO: 2). For housekeeping gene control G3PDH gene, G3PDH.F143: […] (SEQ ID NO: 3) and G3PDH.R1050: […] (SEQ ID NO: 4). For quantitative real time RT-PCR assessment of PSA and Runx 2II genes expression, total RNA was isolated and reverse transcribed from 22Rv1 cells that stimulated with or without OC (80 ng/ml), arginine (30 mM) and R1881 (100 nM) as previously described using specific primer sets. The primers sequences were PSA. For: […] (SEQ ID NO: 5) and PSA.Rev: […] (SEQ ID NO: 6); Runx 2. For: […] (SEQ ID NO: 7) and Runx 2. Rev: […] (SEQ ID NO: 8), and the threshold cycle (Ct) of tested-gene product from the indicated genotype was normalized to the Ct for cyclophilin A as previously described (18).
(§2) After 8 hours stimulation, OC, arginine and R1881 stimulated PSA and Runx 2II gene expression in human prostate cancer 22Rv1 (FIG. 4A and FIG. 4B) and PC-3 cells (FIG. 4C and FIG. 4D). * indicates a significant difference from control and stimulation at p<0.05 respectively.
To investigate whether the observed ligand-induced PSA and Runx2 gene expression in the prostate cancer cells is due to simulation of GPRC6A, the response to GPRC6A ligands was examined after knock-down of GPRC6A. ERK activity was assessed in 22Rv1 stably transfected with GPRC6A siRNA-514 and compared this response to transfected cells with a random negative control siRNA plasmid, which were used as controls.

PC-3 [2] = experiment: PSA and Runx 2II gene expression in PC-3 cells (real time RT-PCR); format: cell-based, human; conditions: 8 hours stimulation; for PSA gene expression: FIG. 4C; for Runx 2II gene expression: FIG. 4D
Procedure: as §1, §2

GPRC6A [3] = experiment: ERK activation in HEK-293 cells transfected with GPRC6A (Western blot); format: cell-based; conditions: HEK-293 overexpressing GPRC6A; 5 min; calcium 1-20 mM, zinc 0.2-0.8 mM, OC 5-60 ng/ml, arginine 5-30 mM, testosterone-BSA 5-100 nM; FIG. 2A
Procedure: (§3) Briefly, human prostate cancer cells and the cells transfected with GPRC6A will be made quiescent by overnight incubation in serum-free DMEM/F12 containing 0.1% BSA and stimulated with various ligands at different doses. ERK activation will be assessed 5 to 30 minutes after treatment by immunoblotting using anti-phospho-ERK1/2 MAP kinase antibody (Cell Signaling Technology) corrected for the amount of ERK using an anti-ERK1/2 MAP Kinase antibody (Cell Signaling Technology) to measure ERK levels.
(§4) Referring to FIG. 2. […] Here, calcium (1-20 mM), zinc (0.2-0.8 mM), OC (5-60 ng/ml), arginine (5-30 mM), and testosterone-BSA (5-100 nM) are confirmed to be functional ligands for GPRC6A (16-17, 19). […] Calcium (10 mM), zinc (0.2 mM), OC (20 ng/ml), arginine (20 mM), and testosterone-BSA (60 nM) increased phospho-ERK in both of these cells. The HEK cells transfected with GPRC6A or without the plasmid cDNA of GPRC6A or 22Rv1 or PC-3 were incubated in Dulbecco's modified Eagle's medium/F-12 containing 0.1% bovine serum albumin quiescence media and exposed to the extracellular calcium, OC, arginine, or testosterone-BSA at indicated concentrations for 5 min, and ERK activation was determined as described under Materials and Methods. Representative blots are shown, and the results were verified in at least three independent experiments.

[4] = system: non-transfected HEK-293 cells; experiment: ERK activation in non-transfected HEK-293 cells (Western blot); format: cell-based; conditions: same ligand concentrations, 5 min
Procedure: as §3, §4

22Rv1 [5] = experiment: ERK activation in 22Rv1 prostate cancer cells (Western blot); format: cell-based, human; conditions: for phospho-ERK: 22Rv1 (androgen receptor positive), calcium 10 mM, zinc 0.2 mM, OC 20 ng/ml, arginine 20 mM, testosterone-BSA 60 nM, 5 min, FIG. 2B; for OC and testosterone stimulated phospho-ERK activity: FIG. 5B
Procedure: as §3, §4
(§5) To confirm the importance of GPRC6A signaling in prostate cancer cell line, the response to GPRC6A ligands was accessed after knock-down of GPRC6A using siRNA. For these studies, ERK activity was assessed in 22Rv1 and PC-3 cells stably transfected with GPRC6A siRNA-202 and siRNA-514. These responses were compared control groups consisting of mock-transfected cells and transfected cells with a random negative control siRNA plasmid.

PC-3 [6] = experiment: ERK activation in PC-3 prostate cancer cells (Western blot); format: cell-based, human; conditions: for phospho-ERK: PC-3 (androgen receptor negative), calcium 10 mM, zinc 0.2 mM, OC 20 ng/ml, arginine 20 mM, testosterone-BSA 60 nM, 5 min, FIG. 2B; for OC and testosterone stimulated phospho-ERK activity: PC-3 transfected with siRNA, FIG. 5B
Procedure: as §3, §4, §5

22Rv1 or PC-3 = experiment: Cell proliferation by hemocytometer cell count; format: cell-based, human; conditions: 22Rv1 or PC-3, 72 h culture, versus control without added ligand; FIG. 3
Procedure: The prostate cancer cell lines 22Rv1, PC-3 and LNcaP and the prostate cell lined RWPE-1 derived from normal prostate were obtained from the American Type Culture Collection (Manassas, Va.). The prostate cells were maintained in RPMI 1640 supplemented with 10% fetal bovine serum (Gibco Life Technologies, Inc.). Cells (10^3 cells/well) were cultured in triplicate in a 96-well flat-bottomed microculture dish using RPMI 1640 containing 10% CFBS in the presence and absence of various concentrations of GPRC6A ligands, including: calcium, amino acids, calcimimetic and OC for 72 h. Cell proliferation was determined by counting cells with a hemocytometer (21).
Now referring to FIG. 3. To determine if GPRC6A ligands enhance prostate cell growth, changes were accessed in cell numbers in 22Rv1 and PC-3 cells exposed to different concentrations of extracellular calcium or OC over a three-day culture period. […] Cell proliferation was determined by counting cells in a hemocytometer method as described in Materials and methods. In all of the above studies, values for relative cell proliferation (expressed as percent of control) represent the mean±SEM of a minimum of three separate experiments. * indicates a significant difference from control and stimulation at p<0.05, respectively.

22Rv1 [7] = experiment: Chemotaxis assay of 22Rv1 cells; format: cell-based, human; conditions: migration toward calcium or OC, various concentrations; FIG. 6C
Procedure: The migration of 22Rv1 cells stably expressing negative control siRNA and human GPRC6A-specific siRNA using a previously described chemotaxis assay (22). The migration index was calculated, and was defined as number of cells crossing the filter toward calcium or OC (various concentrations)/number of cells migrating toward medium alone (control). Each experiment was performed at least three times, in duplicate.
Now referring to FIG. 6. To assess whether GPRC6A mediates prostate cancer cells chemotaxis and metastases, the ability of calcium and OC to evoke chemotaxis of human prostate cancer cell 22Rv1 expressing GPRC6A was examined. The ligands of GPRC6A, OC, arginine and R1881 stimulated gene expression of PSA (FIG. A) and Runx2 (FIG. B) were attenuated by GPRC6A siRNA in 22Rv1, human prostate cancer cells. […] The experiments were described in Materials and methods. In all of the above studies, values for relative cell proliferation (expressed as percent of control) represent the mean±SEM of a minimum of three separate experiments.

GPRC6A [8] = experiment: siRNA suppression of GPRC6A gene expression (RT-PCR); format: cell-based, human; conditions: compared to controls, FIG. 5A
Description: For GPRC6A knockdown experiments, two short interfering RNAs (siRNAs) (19 nucleotides each) have been designed from the hGPRC6A sequence (NM_148963) (SEQ ID NO: 9). These are GPRC6A siRNA-202: CCAGGAGTGTGTTGGCTTT (SEQ ID NO: 10) and siRNA-514: GCCACAGGTGGGTTATGAA (SEQ ID NO: 11). Two siRNA hairpins were synthesized and cloned into a pSilencer™ 4.1-CMV neo vector (Ambion). A circular pSilencer™ 4.1-CMV neo vector that expresses a hairpin siRNA with limited homology to any known sequence was used as a negative control. The constructs of siRNA duplexes have been stably transfected into human prostate cancer cells using Lipofectamine™ (Invitrogen) and were selected by G418 (Invitrogen). Successful knock down of GPRC6A will be confirmed by assessing RT-PCR analysis of GPRC6A expression.
as §5

[9] = target: Human GPRC6A, endogenous in human prostate cancer cell lines 22Rv1 and PC-3 (human) (UniProt Q5T6X5); experiment: cell-based or functional assay
Chain of UniProt Q5T6X5 (Q5T6X5 19-926): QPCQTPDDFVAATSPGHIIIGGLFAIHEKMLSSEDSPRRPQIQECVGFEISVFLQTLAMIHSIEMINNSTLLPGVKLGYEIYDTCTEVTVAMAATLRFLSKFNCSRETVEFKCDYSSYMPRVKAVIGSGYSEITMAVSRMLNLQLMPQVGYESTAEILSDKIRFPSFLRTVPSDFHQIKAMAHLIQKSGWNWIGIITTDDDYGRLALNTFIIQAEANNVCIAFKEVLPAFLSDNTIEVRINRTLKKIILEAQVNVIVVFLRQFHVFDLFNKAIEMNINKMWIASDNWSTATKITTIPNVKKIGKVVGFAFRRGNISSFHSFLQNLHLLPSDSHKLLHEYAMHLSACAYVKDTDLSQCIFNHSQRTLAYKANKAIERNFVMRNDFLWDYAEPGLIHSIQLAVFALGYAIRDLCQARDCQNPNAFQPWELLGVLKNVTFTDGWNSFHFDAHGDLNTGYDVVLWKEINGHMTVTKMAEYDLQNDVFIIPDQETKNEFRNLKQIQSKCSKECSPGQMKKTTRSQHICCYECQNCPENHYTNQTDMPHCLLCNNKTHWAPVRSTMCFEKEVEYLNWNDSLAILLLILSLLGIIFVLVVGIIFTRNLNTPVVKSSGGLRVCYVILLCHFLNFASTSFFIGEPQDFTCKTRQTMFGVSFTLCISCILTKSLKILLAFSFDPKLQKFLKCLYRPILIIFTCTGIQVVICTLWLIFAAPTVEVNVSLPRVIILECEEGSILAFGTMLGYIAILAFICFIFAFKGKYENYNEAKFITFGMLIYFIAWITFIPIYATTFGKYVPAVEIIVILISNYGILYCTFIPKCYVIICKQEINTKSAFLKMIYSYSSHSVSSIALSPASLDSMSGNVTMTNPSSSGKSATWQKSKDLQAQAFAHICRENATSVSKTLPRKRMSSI

[10] = 22Rv1 stably transfected with siRNA
[11] = PC-3 stably transfected with siRNA

COc1cccc(-c2cc(=O)c3ccccc3o2)c1N [PD98059]
growth-factor-mediated cell proliferation (PC-3 cells): obliterates

C[C@]1(O)CC[C@H]2[C@@H]3CCC4=CC(=O)CCC4=C3C=C[C@@]21C [R1881, Methytrienolone]
PSA gene expression (22Rv1 [1]): stimulated
Runx 2II gene expression (22Rv1 [1]): stimulated
PSA gene expression (PC-3 [2]): stimulated
Runx 2II gene expression (PC-3 [2]): stimulated

N=C(N)NCCC[C@H](N)C(=O)O [arginine, L-Arginine]
stimulation of ERK activity (GPRC6A [3]): dose-dependent stimulation
ERK response [4]: failed to respond
phospho-ERK (22Rv1 [5]): increased
phospho-ERK (PC-3 [6]): increased
PSA gene expression (22Rv1 [1]): stimulated
Runx 2II gene expression (22Rv1 [1]): stimulated
PSA gene expression (PC-3 [2]): stimulated
Runx 2II gene expression (PC-3 [2]): stimulated

[Ca+2].[Cl-].[Cl-] [calcium, calcium chloride]
stimulation of ERK activity (GPRC6A [3]): dose-dependent stimulation
ERK response [4]: failed to respond
phospho-ERK (22Rv1 [5]): increased
phospho-ERK (PC-3 [6]): increased
increase in cell number (22Rv1 or PC-3): ~30%
chemotaxis of 22Rv1 prostate cancer cells (22Rv1 [7]): induced the chemotaxis

[Cl-].[Cl-].[Zn+2] [zinc, zinc chloride]
stimulation of ERK activity (GPRC6A [3]): dose-dependent stimulation
ERK response [4]: failed to respond
phospho-ERK (22Rv1 [5]): increased
phospho-ERK (PC-3 [6]): increased

GPRC6A siRNA-202: siRNA, 19 nucleotides, CCAGGAGTGTGTTGGCTTT (SEQ ID NO: 10), hairpin cloned into pSilencer 4.1-CMV neo vector
OC and testosterone stimulated phospho-ERK activity (22Rv1 [5]; 22Rv1 transfected with siRNA): significantly decreased
ERK phosphorylation by extracellular calcium, testosterone, arginine and OC (22Rv1 [5]; 22Rv1 transfected with siRNA, FIG. 5C): failed to stimulate
OC and testosterone stimulated phospho-ERK activity (PC-3 [6]): significantly decreased
mRNA expression of GPRC6A (GPRC6A [8]; [10]): Decreased
mRNA expression of GPRC6A (GPRC6A [8]; [11]): Decreased

OC: Osteocalcin (purified from bovine bone), vitamin-K dependent hormone, GPRC6A ligand (YLDHWLGAPAPYPDPLEPKREVCELNPDCDELADHIGFQEAYRRFYGPV; ends and bridges not checked; cysteine pairing not given here; UniProt P02820 52-100, looked up)
stimulation of ERK activity (GPRC6A [3]): dose-dependent stimulation
ERK response [4]: failed to respond
phospho-ERK (22Rv1 [5]): increased
phospho-ERK (PC-3 [6]): increased
increase in cell number (22Rv1 or PC-3): ~70%
PSA gene expression (22Rv1 [1]): stimulated
Runx 2II gene expression (22Rv1 [1]): stimulated
PSA gene expression (PC-3 [2]): stimulated
Runx 2II gene expression (PC-3 [2]): stimulated
chemotaxis of 22Rv1 prostate cancer cells (22Rv1 [7]): induced the chemotaxis

Osteocalcin (purified from bovine bone) (from UniProt P02820 52-100) (ligand)
cell number after 72 h culture of 22Rv1 and PC-3 cells with OC [9]: 70%

siRNA-514: siRNA, 19 nucleotides, GCCACAGGTGGGTTATGAA (SEQ ID NO: 11), hairpin cloned into pSilencer 4.1-CMV neo vector
OC and testosterone stimulated phospho-ERK activity (22Rv1 [5]; 22Rv1 transfected with siRNA): significantly decreased
OC and testosterone stimulated phospho-ERK activity (PC-3 [6]): significantly decreased
ligand-induced mRNA expression of PSA (22Rv1 [1]; 22Rv1 stably transfected with siRNA versus negative control siRNA, FIG. 6A): Significantly decreased
ligand-induced mRNA expression of Runx2 (22Rv1 [1]; 22Rv1 stably transfected with siRNA versus negative control siRNA, FIG. 6B): Significantly decreased
mRNA expression of GPRC6A (GPRC6A [8]; [10]): Decreased
mRNA expression of GPRC6A (GPRC6A [8]; [11]): Decreased
